Reference: publication PMC10914734 (Signal Transduction and Targeted Therapy, 2024)
Read-outs that look alike come from different tables or passages of the source.

Assays:
HCoV-229E = assay: microbe, parasite or virus in culture; assay type: cell-based; settings: Human coronavirus 229E, Huh-7, read-out: EC50, authentic HCoV-229E
Human CTSL = Human CTSL (Homo sapiens, UniProt P07711); assay: FRET-based cleavage assay, enzymatic inhibition of human CTSL
[1] = test system: vesicular stomatitis virus G glycoprotein (VSV-G) mediated entry; assay type: cell-based
SARS-CoV PsV = assay: microbe, parasite or virus in culture; assay type: cell-based; settings: Severe acute respiratory syndrome coronavirus, Huh-7, read-out: EC50, SARS-CoV PsV
SARS-CoV-2 RdRp = SARS-CoV-2 RdRp (Severe acute respiratory syndrome coronavirus 2, UniProt P0DTD1); assay: biochemical
SARS-CoV-2 = assay: Authentic virus inhibition assay, SARS-CoV-2 wild-type strain in Vero-E6 cells; assay type: cell-based; settings: Severe acute respiratory syndrome coronavirus 2, Vero C1008
Human CTSX = Human CTSX (Homo sapiens, UniProt Q9UBR2); assay: biochemical
Chain of Human CTSX (Q9UBR2 62-303): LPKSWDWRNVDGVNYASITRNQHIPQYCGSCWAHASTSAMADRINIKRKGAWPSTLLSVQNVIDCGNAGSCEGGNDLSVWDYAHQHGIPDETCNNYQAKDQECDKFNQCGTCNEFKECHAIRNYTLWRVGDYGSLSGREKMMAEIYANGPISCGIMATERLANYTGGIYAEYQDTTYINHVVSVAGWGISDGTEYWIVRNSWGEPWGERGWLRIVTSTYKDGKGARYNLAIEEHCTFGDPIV

Human CTSG = Human CTSG (Homo sapiens, UniProt P08311); assay: Protease panel, CTSG inhibition; assay type: biochemical; settings: at a concentration of 20 μM; read-out: Inhibition rate, Human CTSG
Chain of Human CTSG (P08311 21-255): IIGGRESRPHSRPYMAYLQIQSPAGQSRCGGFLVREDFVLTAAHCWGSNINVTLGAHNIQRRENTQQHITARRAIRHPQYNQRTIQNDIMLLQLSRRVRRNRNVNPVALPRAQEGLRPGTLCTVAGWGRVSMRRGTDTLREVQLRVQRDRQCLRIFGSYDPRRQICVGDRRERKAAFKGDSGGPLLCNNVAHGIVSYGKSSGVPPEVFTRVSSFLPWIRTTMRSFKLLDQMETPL

[2] = test system: LPS-induced acute pulmonary inflammation; assay: Mouse model of LPS-induced acute pulmonary inflammation; assay type: in vivo; settings: 100 mg/kg intraperitoneal, 24 h after LPS induction; for Expression levels of inflammatory cytokines (IL-1β, IL-6, TNFα) and chemokines (CCL3, CSF3, CXCL10) in the lung tissues: mice
Experimental: C57BL/6 mice were obtained from Beijing HFK Bioscience Co., Ltd. (Beijing, China). Animals 6–8 weeks of age were used for the studies and were maintained with free access to pellet food and water in plastic cages at 21 ± 2 °C and kept on a 12 h light/dark cycle. Mice were randomly divided into four groups, each group containing eight mice. The mice were intraperitoneally administered with 100 mg/kg of 14a or 100 mg/kg of 14b or vehicle control 1 h prior to LPS challenge. The compounds were dissolved in solvent containing 5% dimethyl sulfoxide, 5% ethanol, 40% polyethylene glycol 400 and 50% saline (volume ratio). The mice were anesthetized by Zoletil 50. Then mice in the normal group were intranasally inoculated with 20 μL normal saline, and mice in the LPS challenge group were intranasally inoculated with 20 μL (5 μg/μL) LPS to induce pneumonia. At 12 h post-induction, the mice were again intraperitoneally administered with 100 mg/kg of 14a or 100 mg/kg of 14b or vehicle control. Twenty-four hours later, mice were euthanized, and the lung tissues were harvested for further study.
RNA isolation, cDNA synthesis, and RT-qPCR. Total RNA was isolated from lung tissues using RNA extraction reagent (Vazyme, R401-01). cDNA was synthesized using the HiScript II Q RT SuperMix (Vazyme, R223-01), according to the manufacturer’s instructions. RT-qPCR was performed using ChamQ SYBR qPCR Master Mix (Vazyme, Q331-02) in the CFX96TM Real Time PCR Detection System (Bio-Rad, Shanghai, China). The profile of thermal cycling consisted of initial denaturation at 95 °C for 30 s, 40 cycles at 95 °C for 5 s and 60 °C for 30 s. All primer sequences used in this study are listed in Supplementary Table S5.
Hematoxylin and eosin (H&E) staining. Lung tissue samples were fixed in 4% paraformaldehyde and embedded in paraffin (Thermo Scientific, 8331). […] was sectioned (5 μm) for H&E staining, and the stained sections were analyzed by a pathologist using a light microscope (Olympus, Tokyo, Japan). Lung injury was evaluated based on histological features, including alveolar septal thickening and inflammatory cell infiltration.

Pharmacokinetics in mice = assay type: in vivo; settings: for AUC(0-inf): read-out: AUCINF_obs; for MRT inf: read-out: MRTINF_obs
[3] = male, ICR, mouse, plasma, ip, 14a, i.p. (5 mg/kg)
[4] = male, ICR, mouse, plasma, iv, 14a, i.v. (5 mg/kg)
[5] = male, ICR, mouse, plasma, po, 14a, p.o. (10 mg/kg)
[6] = CD-1, mouse, plasma, po, 14b, p.o. (20 mg/kg)
[7] = male, CD-1, mouse, plasma, ip, 14b, i.p. (20 mg/kg)
[8] = male, CD-1, mouse, plasma, iv, 14b, i.v. (10 mg/kg)

Chain of Human CTSL (P07711 114-333): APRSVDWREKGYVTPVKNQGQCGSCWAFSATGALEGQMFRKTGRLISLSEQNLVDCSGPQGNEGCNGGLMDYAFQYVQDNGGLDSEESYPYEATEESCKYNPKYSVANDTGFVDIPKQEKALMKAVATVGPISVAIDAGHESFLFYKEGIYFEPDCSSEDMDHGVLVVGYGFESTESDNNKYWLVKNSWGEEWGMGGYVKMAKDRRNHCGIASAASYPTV

SMILES: O=C(NCc1ccccc1)C(=O)[C@H](C[C@@H]1CCCNC1=O)NC(=O)[C@H](Cc1ccc(F)cc1)NC(=O)c1cc2ccccc2o1 [14a, N-((S)-1-(((S)-4-(benzylamino)-3,4-dioxo-1-((S)-2-oxopiperidin-3-yl)butan-2-yl)amino)-3-(4-fluorophenyl)-1-oxopropan-2-yl)benzofuran-2-carboxamide]
- EC50 (HCoV-229E): 19 ± 4.17 nM
- IC50 (Human CTSL): 3.34 ± 0.52 nM
- Inhibitory activity on VSV-G mediated entry [1]: no inhibitory activity
- EC50 (SARS-CoV PsV): 8.24 ± 2.98 nM
- IC50 (SARS-CoV-2 RdRp): 8020 ± 40 nM
- EC50 (SARS-CoV-2): 51.7 ± 10.8 nM
- IC50 (Human CTSX): 722 ± 108 nM
- inhibition (Human CTSG): 20 ± 3%
- Lung histopathology (inflammatory cell infiltration, alveolar septal thickening) compared with vehicle-treated mice [2]: reduced inflammatory cell infiltration and alveolar septal thickening
- Expression levels of inflammatory cytokines (IL-1β, IL-6, TNFα) and chemokines (CCL3, CSF3, CXCL10) in the lung tissues [2]: reduced
- Vss_obs (Pharmacokinetics in mice; 14a, i.v. (5 mg/kg)): 9.5 L/kg
- AUC(0-t) (Pharmacokinetics in mice; [3]): 1260 ng·h/mL
- Cmax (Pharmacokinetics in mice; [3]): 1120 ng/mL
- Tmax (Pharmacokinetics in mice; [3]): 0.25 h
- bioavailability (Pharmacokinetics in mice; [3]): 101%
- half-life (Pharmacokinetics in mice; [3]): 7.01 h
- AUC(0-inf) (Pharmacokinetics in mice; [3]): 1270 ng·h/mL
- MRT inf (Pharmacokinetics in mice; [3]): 1.82 h
- AUC (Pharmacokinetics in mice; male, ICR, mouse, plasma, ip, 14a, intraperitoneal (10 mg/kg) as printed in the text, read-out: area under the curve (AUC)): 1270 ng·h/mL
- AUC(0-t) (Pharmacokinetics in mice; [4]): 1220 ng·h/mL
- clearance (Pharmacokinetics in mice; [4]): 66 mL/min/kg
- half-life (Pharmacokinetics in mice; [4]): 18.5 h
- AUC(0-inf) (Pharmacokinetics in mice; [4]): 1260 ng·h/mL
- MRT inf (Pharmacokinetics in mice; [4]): 2.4 h
- AUC(0-t) (Pharmacokinetics in mice; [5]): 125 ng·h/mL
- Cmax (Pharmacokinetics in mice; [5]): 124 ng/mL
- Tmax (Pharmacokinetics in mice; [5]): 0.25 h
- bioavailability (Pharmacokinetics in mice; [5]): 5%
- half-life (Pharmacokinetics in mice; [5]): 1.09 h
- AUC(0-inf) (Pharmacokinetics in mice; [5]): 126 ng·h/mL
- MRT inf (Pharmacokinetics in mice; [5]): 1.09 h

SMILES: O=C(NCc1ccccc1)C(=O)[C@H](C[C@@H]1CCCNC1=O)NC(=O)[C@H](CC1CCCCC1)NC(=O)c1cc2ccccc2o1 [14b, N-((S)-1-(((S)-4-(benzylamino)-3,4-dioxo-1-((S)-2-oxopiperidin-3-yl)butan-2-yl)amino)-3-cyclohexyl-1-oxopropan-2-yl)benzofuran-2-carboxamide]
- EC50 (HCoV-229E): 20.6 ± 8.19 nM
- IC50 (Human CTSL): 6.88 ± 0.81 nM
- Inhibitory activity on VSV-G mediated entry [1]: no inhibitory activity
- EC50 (SARS-CoV PsV): 10.1 ± 7.77 nM
- IC50 (SARS-CoV-2 RdRp): 3210 ± 250 nM
- EC50 (SARS-CoV-2): < 40 nM
- IC50 (Human CTSX; read-out: IC50, Human CTSX): 1310 nM
- inhibition (Human CTSG): 4 ± 4%
- Lung histopathology (inflammatory cell infiltration, alveolar septal thickening) compared with vehicle-treated mice [2]: reduced inflammatory cell infiltration and alveolar septal thickening
- Expression levels of inflammatory cytokines (IL-1β, IL-6, TNFα) and chemokines (CCL3, CSF3, CXCL10) in the lung tissues [2]: reduced
- Vss_obs (Pharmacokinetics in mice; 14b, i.v. (10 mg/kg)): 6.419 ± 2.698 L/kg
- AUC(0-t) (Pharmacokinetics in mice; [6]): 463 ± 225 ng·h/mL
- Cmax (Pharmacokinetics in mice; [6]): 290 ± 189 ng/mL
- Tmax (Pharmacokinetics in mice; [6]): 0.25 h
- bioavailability (Pharmacokinetics in mice; [6]): 8%
- half-life (Pharmacokinetics in mice; [6]): 1.32 ± 0.77 h
- MRT inf (Pharmacokinetics in mice; [6]): 2.11 ± 0.87 h
- AUC(0-t) (Pharmacokinetics in mice; [7]): 7300 ± 782 ng·h/mL
- Cmax (Pharmacokinetics in mice; [7]): 3270 ± 374 ng/mL
- Tmax (Pharmacokinetics in mice; [7]): 0.18 ± 0.12 h
- bioavailability (Pharmacokinetics in mice; [7]): 128%
- half-life (Pharmacokinetics in mice; [7]): 5.77 h
- AUC(0-inf) (Pharmacokinetics in mice; [7]): 7640 ng·h/mL
- MRT inf (Pharmacokinetics in mice; [7]): 5.34 ± 1.81 h
- AUC(0-t) (Pharmacokinetics in mice; [8]): 2900 ± 1020 ng·h/mL
- clearance (Pharmacokinetics in mice; [8]): 62.5 ± 27.4 mL/min/kg
- half-life (Pharmacokinetics in mice; [8]): 3.34 ± 2.38 h
- AUC(0-inf) (Pharmacokinetics in mice; [8]): 2980 ng·h/mL
- MRT inf (Pharmacokinetics in mice; [8]): 1.88 ± 1.08 h
- AUC(0-inf) (Pharmacokinetics in mice; male, CD-1, mouse, plasma, po, 14b, p.o. (20 mg/kg)): 488 ng·h/mL
